Measured values: US6380387B1, “4-Pyrimidinyl-n-acyl-l phenylalanines” (Hoffmann-La Roche Inc., priority 1999, dated 2002)

What was measured:
alpha4-beta7 = molecular target: T1, alpha4-beta7 (Homo sapiens, UniProt P13612+P26010); experiment: Alpha4-Beta7 Assay (MadCAM/RPMI 8866 cell adhesion); type: cell-based; settings: calcein labeled RPMI 8866 cells adhering to immobilized MadCAM
T1 construct: Sufficient RPMI 8866 cells were removed from stock for assay; endogenous in cells; host or cells: RPMI 8866 cells
T1 sequence (P13612 34-1032): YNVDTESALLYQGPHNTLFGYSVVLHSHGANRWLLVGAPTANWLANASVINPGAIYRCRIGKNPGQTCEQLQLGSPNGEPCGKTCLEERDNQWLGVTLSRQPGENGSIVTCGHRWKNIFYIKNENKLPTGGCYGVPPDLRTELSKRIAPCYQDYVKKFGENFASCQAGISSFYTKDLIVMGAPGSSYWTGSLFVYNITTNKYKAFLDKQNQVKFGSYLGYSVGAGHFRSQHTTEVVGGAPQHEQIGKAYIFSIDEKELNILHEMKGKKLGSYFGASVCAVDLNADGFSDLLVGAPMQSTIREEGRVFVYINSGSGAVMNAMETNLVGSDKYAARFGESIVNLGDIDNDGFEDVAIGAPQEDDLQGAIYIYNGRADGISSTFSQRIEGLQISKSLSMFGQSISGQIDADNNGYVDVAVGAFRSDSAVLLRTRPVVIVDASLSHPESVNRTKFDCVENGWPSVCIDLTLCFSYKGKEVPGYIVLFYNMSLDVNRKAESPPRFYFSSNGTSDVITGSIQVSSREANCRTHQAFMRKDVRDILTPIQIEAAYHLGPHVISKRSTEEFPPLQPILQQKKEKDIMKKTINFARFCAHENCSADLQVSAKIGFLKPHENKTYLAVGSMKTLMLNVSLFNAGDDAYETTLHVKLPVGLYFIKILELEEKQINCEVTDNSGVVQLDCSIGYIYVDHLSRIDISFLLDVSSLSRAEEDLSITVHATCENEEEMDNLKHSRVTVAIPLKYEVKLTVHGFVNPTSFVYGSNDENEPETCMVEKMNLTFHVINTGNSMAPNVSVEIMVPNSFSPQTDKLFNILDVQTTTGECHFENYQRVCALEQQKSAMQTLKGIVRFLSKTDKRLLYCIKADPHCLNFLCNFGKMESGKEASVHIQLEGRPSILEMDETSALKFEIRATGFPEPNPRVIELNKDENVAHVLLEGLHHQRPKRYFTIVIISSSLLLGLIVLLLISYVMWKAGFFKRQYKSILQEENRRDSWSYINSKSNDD
T1 sequence (P26010 20-798): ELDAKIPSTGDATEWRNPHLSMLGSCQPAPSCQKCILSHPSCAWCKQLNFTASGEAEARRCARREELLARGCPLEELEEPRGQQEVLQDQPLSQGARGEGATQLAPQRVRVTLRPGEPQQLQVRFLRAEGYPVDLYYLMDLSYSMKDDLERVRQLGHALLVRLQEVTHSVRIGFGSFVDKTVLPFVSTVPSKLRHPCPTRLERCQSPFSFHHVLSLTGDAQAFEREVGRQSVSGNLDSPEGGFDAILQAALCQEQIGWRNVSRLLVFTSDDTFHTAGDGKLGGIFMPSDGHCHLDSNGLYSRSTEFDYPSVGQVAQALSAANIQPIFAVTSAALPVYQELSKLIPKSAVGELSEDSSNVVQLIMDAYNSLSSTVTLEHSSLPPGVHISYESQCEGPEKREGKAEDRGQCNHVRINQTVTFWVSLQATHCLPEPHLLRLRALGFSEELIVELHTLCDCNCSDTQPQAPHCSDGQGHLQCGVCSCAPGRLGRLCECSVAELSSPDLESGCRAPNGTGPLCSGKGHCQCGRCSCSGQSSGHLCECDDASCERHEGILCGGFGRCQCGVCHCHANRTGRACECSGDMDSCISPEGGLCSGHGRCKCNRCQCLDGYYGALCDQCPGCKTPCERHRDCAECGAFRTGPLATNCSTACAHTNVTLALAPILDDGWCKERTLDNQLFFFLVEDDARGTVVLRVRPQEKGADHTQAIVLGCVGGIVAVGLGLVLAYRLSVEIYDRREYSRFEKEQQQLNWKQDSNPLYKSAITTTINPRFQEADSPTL
Description: Alpha4-Beta7 Assay Protocol
Two weeks to one day prior to the assay, Nunc high-binding F96 Maxisorp immuno plates, #442404 or #439454, were coated with 25 ng/well (0.25 μg/ml) MadCAM in a volume of 100 μl/well. The plates were covered with sealer and wrapped in saran wrap followed by incubation in the refrigerator for at least 24 hours. The coating buffer employed was: 10 mM carbonate/bicarbonate buffer made up from: 0.8 g/L sodium carbonate and 1.55 g/L sodium bicarbonate adjusted to pH 9.6 with 1 N HCl. Assay buffers consisted of the following:
Plates were washed 2× with wash buffer and then blocked at room temperature for at least 1 hour with Blocking Buffer. Sealed plates were sometimes blocked overnight in the refrigerator. Plates were then washed with PBS and hand blotted dry. Remaining liquid was aspirated from the wells.
Sufficient RPMI 8866 cells were removed from stock for assay (2×10^6 cells/ml×10 ml/plate×number of plates) and placed in a centrifuge tube. The tubes were filled to volume with PBS and were spun at 200×G for 8 minutes. The buffer was poured off and the cells were resuspended to 10×10^6/ml in PBS and a stock solution of calcein in DMSO (5mg/mL) was added at 51 μl/ml of cell suspension. The suspension was incubated for 30 minutes at 37° C. in dark. The cells were then washed with PBS. The PBS was poured off and the cells resuspended in cell buffer at a concentration of 2×10^6 cells/mL for plating in the assay.
Stock solution of test compounds at 25× first dilution desired in 100% DMSO were prepared. First dilutions for the standard, as well as test compounds, were 1:25 into straight Binding Buffer, while the remaining serial dilutions were into Dilution Buffer (Binding Buffer/4% DMSO). Stock concentrations and dilutions of compounds for screening were determined by anticipated activity.
For the assay, 129 μl Binding Buffer was plated into first row of wells and 100 μl Dilution Buffer was plated into remaining wells. A 5.44 μl aliquot of each compound was pipetted into appropriate, labeled wells, in triplicate. The compounds were next diluted down the plate (34 μl+100 μl=>4-fold dilution). For controls, 100 μl of Dilution Buffer 100 μl Cell Buffer were plated into the nonspecific background wells (no cells, no compound) and 100 μl Dilution Buffer+100 μl cells were plated into the total binding wells (no compound=100% binding). Labeled cells at 2×10^6 cells/ml, 100 μl/well (=2×10^5 cells/well) were added to each well containing compound. The plates were sealed and incubated in the dark for 45 minutes at room temperature. Following incubation, unbound cells were removed by adding 150 μl PBS/well. The plates were inverted, blotted onto paper towels and washed by gently adding 200 μl PBS to wells and blotting again. Remaining buffer was carefully aspirated from the wells. A final 100 μl PBS was added to each well.
The plates were then read for fluorescence intensity on a Cytofluor 2300 (Millipore) fluorecence measurement system (excitation=485 nm, emission=530 nm). IC50s of each compound were determined by linear regression analysis.

IC50 (alpha4-beta7) [µM] | melting point [°C] | SMILES
< 0.1 | 240 to 242 | Cc1cccc(Br)c1C(=O)N[C@@H](Cc1ccc(-c2c(C)n(C)c(=O)n(C)c2=O)cc1)C(=O)O [Example 8, N-[(2-bromo-6-methylphenyl)carbonyl]-4-(1,3,6-trimethyl-2,4-dioxo-5-pyrimidinyl)-L-phenylalanine]
< 10 | 187 to 190 | CCc1cccc(Cl)c1C(=O)N[C@@H](Cc1ccc(-c2c(C)n(C)c(=O)n(C)c2=O)cc1)C(=O)O [Example 15, N-[(2-chloro-6-ethylphenyl)carbonyl]-4-(1,3,6-trimethyl-2,4-dioxo-5-pyrimidinyl)-L-phenylalanine]
< 10 | 109 to 111 | Cc1cc(C[C@H](NC(=O)c2c(C)cccc2Cl)C(=O)O)ccc1-c1cn(C)c(=O)n(C)c1=O [Example 24, N-[(2-chloro-6-methylphenyl)carbonyl]-4-(1,3-dimethyl-2,4-dioxo-5-pyrimidinyl)-3-methyl-L-phenylalanine]
< 10 | 218 to 220 | Cc1c(-c2ccc(C[C@H](NC(=O)c3c(F)cccc3C(F)(F)F)C(=O)O)cc2)c(=O)n(C)c(=O)n1C [Example 13, N-[(2-fluoro-6-(trifluoromethyl)phenyl)carbonyl]-4-(1,3,6-trimethyl-2,4-dioxo-5-pyrimidinyl)-L-phenylalanine]
